Source: patent publication US10329283B2, “G protein-coupled receptor kinase inhibitors and methods for use of the same” (THE REGENTS OF THE UNIVERSITY OF MICHIGAN, priority 2015, dated 2019)
Structures can show the parent of a compound that is named as a salt.

Tests used:
Format in all cases: biochemical
Settings in all cases: 50 nM GRK, 5 μM ATP, 500 nM bROS or tubulin, 5 min
GRK5 = GRK5 (Homo sapiens, UniProt P34947); assay: GRK5 kinetic assay for inhibition of GRKs (phosphorimaging)
Experimental: (§1) The low salt concentration and DDM were used to maximize GRK activity and disrupt small molecule aggregates from forming, respectively. […] Data was analyzed and inhibition curves were fit via GraphPad Prism.

GRK2 = target: T1, GRK2 (Homo sapiens, UniProt P25098); assay: GRK2 kinetic assay for inhibition of GRKs (phosphorimaging)
T1 sequence (P25098 1-689): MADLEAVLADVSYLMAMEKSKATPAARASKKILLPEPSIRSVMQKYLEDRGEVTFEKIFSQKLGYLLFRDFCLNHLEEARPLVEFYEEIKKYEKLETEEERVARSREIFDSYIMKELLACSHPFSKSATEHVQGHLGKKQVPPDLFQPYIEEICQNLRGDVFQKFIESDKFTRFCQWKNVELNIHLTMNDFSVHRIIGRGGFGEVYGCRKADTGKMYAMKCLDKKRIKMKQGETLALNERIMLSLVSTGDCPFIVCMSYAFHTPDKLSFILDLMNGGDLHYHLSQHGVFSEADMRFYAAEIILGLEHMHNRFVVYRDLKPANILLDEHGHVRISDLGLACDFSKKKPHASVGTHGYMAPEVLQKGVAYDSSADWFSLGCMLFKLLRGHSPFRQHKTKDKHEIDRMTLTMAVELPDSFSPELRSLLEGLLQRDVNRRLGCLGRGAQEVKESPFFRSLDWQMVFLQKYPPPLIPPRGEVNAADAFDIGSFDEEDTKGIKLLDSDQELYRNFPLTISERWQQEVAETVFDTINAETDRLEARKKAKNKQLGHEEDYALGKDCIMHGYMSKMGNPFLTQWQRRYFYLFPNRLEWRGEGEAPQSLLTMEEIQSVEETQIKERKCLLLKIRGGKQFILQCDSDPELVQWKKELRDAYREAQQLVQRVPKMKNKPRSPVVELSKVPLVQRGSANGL
Experimental: as §1

GRK1 = target: T2, GRK1 (Bos taurus, UniProt P28327); assay: GRK1 kinetic assay for inhibition of GRKs (phosphorimaging)
T2 sequence (P28327 1-535 limits assumed): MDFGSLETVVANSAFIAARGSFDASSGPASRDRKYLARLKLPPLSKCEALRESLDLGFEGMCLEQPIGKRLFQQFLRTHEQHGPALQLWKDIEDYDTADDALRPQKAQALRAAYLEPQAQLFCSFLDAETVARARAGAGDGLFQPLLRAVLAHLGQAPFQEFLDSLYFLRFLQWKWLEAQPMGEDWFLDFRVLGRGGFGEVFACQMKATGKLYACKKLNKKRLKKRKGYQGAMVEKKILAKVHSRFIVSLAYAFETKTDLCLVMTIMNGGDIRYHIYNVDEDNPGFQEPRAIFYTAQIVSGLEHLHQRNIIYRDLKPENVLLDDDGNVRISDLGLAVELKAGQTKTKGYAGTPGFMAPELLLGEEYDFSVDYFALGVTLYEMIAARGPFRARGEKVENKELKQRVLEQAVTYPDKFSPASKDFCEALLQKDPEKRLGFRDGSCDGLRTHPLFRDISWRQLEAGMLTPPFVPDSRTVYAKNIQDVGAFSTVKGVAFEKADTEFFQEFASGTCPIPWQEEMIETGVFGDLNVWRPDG
Experimental: as §1

GRK5, sequence (P34947 whole entry, species assumed): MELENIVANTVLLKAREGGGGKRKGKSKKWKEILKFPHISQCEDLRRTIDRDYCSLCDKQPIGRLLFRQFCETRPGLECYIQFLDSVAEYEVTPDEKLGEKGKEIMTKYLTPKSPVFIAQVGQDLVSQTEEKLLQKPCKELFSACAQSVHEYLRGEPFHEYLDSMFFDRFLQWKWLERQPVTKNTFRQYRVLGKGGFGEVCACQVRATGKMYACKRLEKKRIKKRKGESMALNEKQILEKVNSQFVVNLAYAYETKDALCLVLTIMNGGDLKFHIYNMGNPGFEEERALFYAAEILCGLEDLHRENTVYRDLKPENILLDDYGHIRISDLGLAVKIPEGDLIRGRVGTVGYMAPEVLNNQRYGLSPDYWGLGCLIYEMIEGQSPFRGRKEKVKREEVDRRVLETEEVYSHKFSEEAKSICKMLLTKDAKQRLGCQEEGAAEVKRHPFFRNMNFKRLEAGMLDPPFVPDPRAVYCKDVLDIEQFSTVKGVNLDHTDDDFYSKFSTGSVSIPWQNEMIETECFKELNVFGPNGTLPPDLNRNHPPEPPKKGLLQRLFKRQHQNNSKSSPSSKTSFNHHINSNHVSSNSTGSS

SMILES | IC50 (GRK5) | IC50 (GRK2) | IC50 (GRK1)
O=C(NCCc1c[nH]cn1)c1cc([C@@H]2CCNC[C@H]2COc2ccc3c(c2)OCO3)ccc1F [Example E28, N-(2-(1H-imidazol-4-yl)ethyl)-5-((3S,4R)-3-((benzo[d][1,3]dioxol-5-yloxy)methyl)piperidin-4-yl)-2-fluorobenzamide] | > 100 µM |  | 
O=C(NCCc1cccnc1)c1cc([C@@H]2CCNC[C@H]2COc2ccc3c(c2)OCO3)ccc1F [Example E25, 5-((3S,4R)-3-((benzo[d][1,3]dioxol-5-yloxy)methyl)piperidin-4-yl)-2-fluoro-N-(2-(pyridin-3-yl)ethyl)benzamide] | > 100 µM |  | 
Fc1ccc([C@@H]2CCNC[C@H]2COc2cc3cn[nH]c3cc2F)cc1 [Example E30, 6-fluoro-5-(((3S,4R)-4-(4-fluorophenyl)piperidin-3-yl)methoxy)-1H-indazole] | 0.82 µM | 0.14 µM | 3.67 µM
Cc1cccc(C)c1CNC(=O)c1cc([C@@H]2CCNC[C@H]2COc2ccc3c(c2)OCO3)ccc1F [Example E13, 5-((3S,4R)-3-((benzo[d][1,3]dioxol-5-yloxy)methyl)piperidin-4-yl)-N-(2,6-dimethylbenzyl)-2-fluorobenzamide hydrochloride] | 56.4 µM | 1.01 µM | 11.3 µM
O=C(NCCc1cn[nH]c1)c1cc([C@@H]2CCNC[C@H]2COc2ccc3c(c2)OCO3)ccc1F [Example E08, N-(2-(1H-pyrazol-4-yl)ethyl)-5-((3S,4R)-3-((benzo[d][1,3]dioxol-5-yloxy)methyl)piperidin-4-yl)-2-fluorobenzamide hydrochloride] | > 100 µM | 1.75 µM | 
COc1cccc(OC)c1CNC(=O)c1cc([C@@H]2CCNC[C@H]2COc2ccc3c(c2)OCO3)ccc1F [Example E15, 5-((3S,4R)-3-((benzo[d][1,3]dioxol-5-yloxy)methyl)piperidin-4-yl)-N-(2,6-dimethoxybenzyl)-2-fluorobenzamide hydrochloride] | > 100 µM | 1.39 µM | 22 µM
CN1CC[C@@H](c2ccc(F)cc2)[C@H](COc2ccc3[nH]ncc3c2)C1 [Example E32, 5-(((3S,4R)-4-(4-fluorophenyl)-1-methylpiperidin-3-yl)methoxy)-1H-indazole] | 33 µM | 0.29 µM | 51.8 µM
O=C(NCc1ccccc1)c1cc([C@@H]2CCNC[C@H]2COc2ccc3c(c2)OCO3)ccc1F [Example E19, 5-((3S,4R)-3-((benzo[d][1,3]dioxol-5-yloxy)methyl)piperidin-4-yl)-N-benzyl-2-fluorobenzamide] | 84.3 µM |  | 
Fc1ccc([C@@H]2CCNC[C@H]2COc2ccc3[nH]ncc3c2)cc1 [Example E18, 5-(((3S,4R)-4-(4-fluorophenyl)piperidin-3-yl)methoxy)-1H-indazole] | 12.8 µM | 0.07 µM | 65.7 µM
O=C(Cc1cc([C@@H]2CCNC[C@H]2COc2ccc3c(c2)OCO3)ccc1F)NCCc1ccccn1 [Example E03, 2-(5-((3S,4R)-3-((benzo[d][1,3]dioxol-5-yloxy)methyl)piperidin-4-yl)-2-fluorophenyl)-N-(2-(pyridin-2-yl)ethyl)acetamide hydrochloride] | > 100 µM | 3.65 µM | 
O=C(NCc1c(F)cccc1F)c1cc([C@@H]2CCNC[C@H]2COc2ccc3c(c2)OCO3)ccc1F [Example E11, 5-((3S,4R)-3-((benzo[d][1,3]dioxol-5-yloxy)methyl)piperidin-4-yl)-N-(2,6-difluorobenzyl)-2-fluorobenzamide hydrochloride] | 45.5 µM |  | 
COc1ccccc1CNC(=O)Cc1cc([C@@H]2CCNC[C@H]2COc2ccc3c(c2)OCO3)ccc1F [Example E06, 2-(5-((3S,4R)-3-((benzo[d][1,3]dioxol-5-yloxy)methyl)piperidin-4-yl)-2-fluorophenyl)-N-(2-methoxybenzyl)acetamide hydrochloride] | > 100 µM | 0.64 µM | 
O=C(NCCc1ccncc1)c1cc([C@@H]2CCNC[C@H]2COc2ccc3c(c2)OCO3)ccc1F [Example E24, 5-((3S,4R)-3-((benzo[d][1,3]dioxol-5-yloxy)methyl)piperidin-4-yl)-2-fluoro-N-(2-(pyridin-4-yl)ethyl)benzamide] | > 100 µM |  | 
O=C(NCc1cccnc1)c1cc([C@@H]2CCNC[C@H]2COc2ccc3c(c2)OCO3)ccc1F [Example E21, 5-((3S,4R)-3-((benzo[d][1,3]dioxol-5-yloxy)methyl)piperidin-4-yl)-2-fluoro-N-(pyridin-3-ylmethyl)benzamide] | 76.3 µM |  | 
O=C(NCc1ncc[nH]1)c1cc([C@@H]2CCNC[C@H]2COc2ccc3c(c2)OCO3)ccc1F [Example E27, N-((1H-imidazol-2-yl)methyl)-5-((3S,4R)-3-((benzo[d][1,3]dioxol-5-yloxy)methyl)piperidin-4-yl)-2-fluorobenzamide] | 14.8 µM |  | 
O=C(NCc1ccccn1)c1cc([C@@H]2CCNC[C@H]2COc2ccc3c(c2)OCO3)ccc1F [Example E07, 5-((3S,4R)-3-((benzo[d][1,3]dioxol-5-yloxy)methyl)piperidin-4-yl)-2-fluoro-N-(pyridin-2-ylmethyl)benzamide hydrochloride] | 15.2 µM | 0.44 µM | 
O=C(Cc1cc([C@@H]2CCNC[C@H]2COc2ccc3c(c2)OCO3)ccc1F)NCCc1cn[nH]c1 [Example E04, N-(2-(1H-pyrazol-4-yl)ethyl)-2-(5-((3S,4R)-3-((benzo[d][1,3]dioxol-5-yloxy)methyl)piperidin-4-yl)-2-fluorophenyl)acetamide hydrochloride] | > 100 µM | 0.62 µM | 
O=C(NCCc1ccccc1)c1cc([C@@H]2CCNC[C@H]2COc2ccc3c(c2)OCO3)ccc1F [Example E20, 5-((3S,4R)-3-((benzo[d][1,3]dioxol-5-yloxy)methyl)piperidin-4-yl)-2-fluoro-N-phenethylbenzamide] | > 100 µM |  | 
COc1ccccc1CNC(=O)c1cc([C@@H]2CCNC[C@H]2COc2ccc3c(c2)OCO3)ccc1F [Example E09, 5-((3S,4R)-3-((benzo[d][1,3]dioxol-5-yloxy)methyl)piperidin-4-yl)-2-fluoro-N-(2-methoxybenzyl)benzamide hydrochloride] | > 100 µM | 48.5 µM | 
O=C(NCCc1ccccn1)c1cc([C@@H]2CCNC[C@H]2COc2ccc3c(c2)OCO3)ccc1F [Example E23, 5-((3S,4R)-3-((benzo[d][1,3]dioxol-5-yloxy)methyl)piperidin-4-yl)-2-fluoro-N-(2-(pyridin-2-yl)ethyl)benzamide] | > 100 µM |  | 
O=C(NCc1ccncc1)c1cc([C@@H]2CCNC[C@H]2COc2ccc3c(c2)OCO3)ccc1F [Example E22, 5-((3S,4R)-3-((benzo[d][1,3]dioxol-5-yloxy)methyl)piperidin-4-yl)-2-fluoro-N-(pyridin-4-ylmethyl)benzamide] | > 100 µM |  | 
O=C(NCc1ccccc1C(F)(F)F)c1cc([C@@H]2CCNC[C@H]2COc2ccc3c(c2)OCO3)ccc1F [Example E10, 5-((3S,4R)-3-((benzo[d][1,3]dioxol-5-yloxy)methyl)piperidin-4-yl)-2-fluoro-N-(2-(trifluoromethyl)benzyl)benzamide hydrochloride] | 61.9 µM | 12.5 µM | 
